Data from ChEMBL document CHEMBL1201862, “PubChem BioAssay data set” (2004).
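How tested: cells in 96-well plates exposed to compound for 48 hours at five concentrations. The concentration for 50% growth inhibition is given as GI50.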 Calls of active or inactive are those of the source. Rule as the data show it: active = GI50 up to about 1.1 µM and inactive = higher.

What was measured:
Assay in all cases: NCI tumour cell line growth inhibition, 48 h
[1] = system: A498
[2] = system: A549
[3] = system: CCRF-CEM
[4] = system: COLO 205
[5] = system: DLD-1
[6] = system: DMS-114
[7] = system: DMS-273
[8] = system: EKVX
[9] = system: HCC 2998
[10] = system: HCT-116
[11] = system: HCT-15
[12] = system: HL-60
[13] = system: HOP-18
[14] = system: HOP-62
[15] = system: HOP-92
[16] = system: HT-29
[17] = system: IGROV-1
[18] = system: K562
[19] = system: KM-20L2
[20] = system: KM12
[21] = system: LOX IMVI
[22] = system: M19-MEL
[23] = system: MCF7
[24] = system: MOLT-4
[25] = system: Malme-3M
[26] = system: NCI-H226
[27] = system: NCI-H23
[28] = system: NCI-H460
[29] = system: NCI-H522
[30] = system: NCI/ADR-RES
[31] = system: OVCAR-3
[32] = system: OVCAR-4
[33] = system: OVCAR-5
[34] = system: OVCAR-8
[35] = system: RPMI-8226
[36] = system: RXF 393
[37] = system: SF-268
[38] = system: SF-295
[39] = system: SF-539
[40] = system: SK-MEL-28
[41] = system: SK-MEL-2
[42] = system: SK-MEL-5
[43] = system: SK-OV-3
[44] = system: SN12C
[45] = system: SNB-19
[46] = system: SNB-75
[47] = system: SNB-78
[48] = system: SW-620
[49] = system: U-251
[50] = system: UACC-257
[51] = system: UACC-62
[52] = system: UO-31
[53] = system: XF498
[54] = system: 786-0
[55] = system: ACHN
[56] = system: CAKI-1
[57] = system: LXFL 529
[58] = system: M14
[59] = system: SR
[60] = system: TK-10

Measured: GI50

O=[N+]([O-])c1ccc(Nc2cccc3c4cc[nH]c(-c5ccccc5)c-4nc23)c([N+](=O)[O-])c1
> 100 µM: [11]
inactive: [1] > 100 µM | [2] > 100 µM | [3] 41.4 µM | [4] > 100 µM | [5] > 100 µM | [6] > 100 µM | [7] > 100 µM | [8] > 100 µM | [9] > 100 µM | [10] > 100 µM | [12] > 100 µM | [13] > 100 µM | [14] > 100 µM | [15] > 100 µM | [16] > 100 µM | [17] > 100 µM | [18] 36.1 µM | [19] > 100 µM | [20] > 100 µM | [21] > 100 µM | [22] > 100 µM | [23] 54.2 µM | [24] 5.82 µM | [25] > 100 µM | [26] > 100 µM | [27] > 100 µM | [28] > 100 µM | [29] > 100 µM | [30] > 100 µM | [31] > 100 µM | [32] > 100 µM | [33] > 100 µM | [34] > 100 µM | [35] > 100 µM | [36] > 100 µM | [37] > 100 µM | [38] > 100 µM | [39] > 100 µM | [40] > 100 µM | [41] > 100 µM | [42] > 100 µM | [43] > 100 µM | [44] > 100 µM | [45] > 100 µM | [46] > 100 µM | [47] > 100 µM | [48] > 100 µM | [49] > 100 µM | [50] > 100 µM | [51] 93.5 µM | [52] > 100 µM | [53] > 100 µM

CCOC(=O)C1S/C(=N\c2ccc(C)c(C)c2)N=C1C (stereo not drawn)
> 100 µM: [11]
inactive: [54] > 100 µM | [1] > 100 µM | [2] > 100 µM | [55] > 100 µM | [56] > 100 µM | [3] > 100 µM | [4] > 100 µM | [5] > 100 µM | [6] > 100 µM | [7] > 100 µM | [8] > 100 µM | [9] > 100 µM | [12] 61 µM | [13] > 100 µM | [14] > 100 µM | [15] > 100 µM | [16] > 100 µM | [17] > 100 µM | [18] 59.3 µM | [19] > 100 µM | [20] > 100 µM | [21] 75.2 µM | [57] > 100 µM | [58] > 100 µM | [22] > 100 µM | [24] > 100 µM | [25] > 100 µM | [26] > 100 µM | [27] > 100 µM | [28] > 100 µM | [29] > 100 µM | [31] > 100 µM | [32] > 100 µM | [33] > 100 µM | [34] > 100 µM | [35] 85.7 µM | [37] > 100 µM | [38] > 100 µM | [39] > 100 µM | [40] > 100 µM | [41] > 100 µM | [42] 52.7 µM | [43] > 100 µM | [44] > 100 µM | [45] > 100 µM | [46] 66.8 µM | [59] > 100 µM | [48] > 100 µM | [60] > 100 µM | [49] > 100 µM | [50] > 100 µM | [51] > 100 µM | [52] > 100 µM | [53] > 100 µM
